Assay results: US20220387276A1, “Composition Comprising Oils, Free Fatty Acids And Squalene” (Clariant International Ltd., priority 2021, published 2022)

Assay type: physicochemical
Protocol: The oxidative stability at 90° C. was determined according to DIN EN ISO 6886 for the blend of Example 1 and compared with the oxidative stability of squalene.

For `CC(C)=CCC/C(C)=C/CC/C(C)=C/CC/C=C(\C)CC/C=C(\C)CCC=C(C)C` [squalene], the “Induction time (oxidative stability)” value was 4.84 h.
